± gives the standard deviation of the averaged measurements.
How the values were obtained:
[1] = compound: COc1cc2c(Oc3ccc(NC(=O)C4(C(=O)Nc5ccc(F)cc5)CC4)cc3F)ccnc2cc1OCCCN1CCOCC1 [FORETINIB]; assay: surviving fraction relative to DMSO-only wells; higher = less growth inhibition; settings: exposure time: 5 days
Summary of the method: (§1)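 After seeding at 250–500 cells per well in 384-well plates and a 24-hour wait, log-phase tumour cell lines were exposed without interruption for five days to inhibitors at 0.5, 1, 5, 10, 50, 100, 500 and 1000 nM. CellTiter-Glo luminescence was recorded after 10 minutes at room temperature. Viability is reported as surviving fraction, the luminescence normalised to the median of DMSO-only wells.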

[2] = compound: CNCc1ccc(-c2[nH]c3cc(F)cc4c3c2CCNC4=O)cc1; assay: as above; settings: exposure time: 5 days
Summary of the method: as §1

Row | Test System | surviving fraction ([1]; 0.5 nM) | surviving fraction ([1]; 1 nM) | surviving fraction ([1]; 5 nM) | surviving fraction ([1]; 10 nM) | surviving fraction ([1]; 50 nM) | surviving fraction ([1]; 100 nM) | surviving fraction ([1]; 500 nM) | surviving fraction ([1]; 1000 nM) | surviving fraction ([2]; 0.5 nM) | surviving fraction ([2]; 1 nM) | surviving fraction ([2]; 5 nM) | surviving fraction ([2]; 10 nM) | surviving fraction ([2]; 50 nM) | surviving fraction ([2]; 100 nM) | surviving fraction ([2]; 500 nM) | surviving fraction ([2]; 1000 nM)
1 | PCI30 HEADNECK | 1.07 ± 0.09 | 1.1 ± 0.043 | 1.1 ± 0.019 | 1.11 ± 0.045 | 1.04 ± 0.028 | 1.04 ± 0.072 | 0.806 ± 0.056 | 0.484 ± 0.0076 | 0.981 ± 0.059 | 1.04 ± 0.059 | 0.912 ± 0.019 | 0.937 ± 0.037 | 0.916 ± 0.056 | 0.944 ± 0.062 | 0.964 ± 0.044 | 0.956 ± 0.038
2 | SYO1 SYNOVIAL | 0.989 ± 0.038 | 0.971 ± 0.05 | 0.929 ± 0.026 | 0.914 ± 0.027 | 0.821 ± 0.013 | 0.749 ± 0.028 | 0.25 ± 0.0099 | 0.189 ± 0.026 | 0.954 ± 0.081 | 0.921 ± 0.022 | 0.842 ± 0.014 | 0.8 ± 0.019 | 0.655 ± 0.029 | 0.587 ± 0.032 | 0.455 ± 0.037 | 0.351 ± 0.04
3 | A549 LUNG | 1.083 ± 0.0085 | 1.1 ± 0.018 | 1.08 ± 0.028 | 1.05 ± 0.016 | 1.06 ± 0.045 | 1.06 ± 0.041 | 0.703 ± 0.012 | 0.542 ± 0.021 | 1.1 ± 0.039 | 1.07 ± 0.03 | 1.057 ± 0.0071 | 1.06 ± 0.029 | 1.14 ± 0.066 | 1.05 ± 0.06 | 1.08 ± 0.027 | 1.08 ± 0.034
4 | HELA CERVIX | 1.09 ± 0.037 | 1.05 ± 0.091 | 1.1 ± 0.039 | 1.05 ± 0.052 | 1.14 ± 0.11 | 1.15 ± 0.042 | 0.659 ± 0.073 | 0.07233 ± 0.00058 | 1.09 ± 0.093 | 1.09 ± 0.08 | 1.08 ± 0.054 | 1.03 ± 0.07 | 1.16 ± 0.11 | 1.12 ± 0.16 | 1.14 ± 0.079 | 1.09 ± 0.071
5 | SJSA1 BONE | 1.14 ± 0.026 | 1.7 ± 0.03 | 1.69 ± 0.15 | 1.74 ± 0.063 | 1.48 ± 0.1 | 1.74 ± 0.075 | 1.46 ± 0.069 | 1.83 ± 0.038 | 1.35 ± 0.059 | 1.7 ± 0.1 | 1.6 ± 0.045 | 1.8 ± 0.1 | 1.7 ± 0.073 | 1.76 ± 0.059 | 1.65 ± 0.017 | 1.74 ± 0.068
6 | HCC1806 BREAST | 1.13 ± 0.071 | 0.942 ± 0.035 | 1.21 ± 0.031 | 1.12 ± 0.038 | 1.16 ± 0.11 | 1.12 ± 0.056 | 0.468 ± 0.014 | 0.452 ± 0.033 | 1.05 ± 0.074 | 0.879 ± 0.021 | 1.02 ± 0.024 | 1.07 ± 0.094 | 0.77 ± 0.076 | 0.74 ± 0.09 | 0.601 ± 0.046 | 0.521 ± 0.026
7 | MDAMB361 BREAST | 0.794 ± 0.035 | 0.877 ± 0.15 | 0.803 ± 0.05 | 1.18 ± 0.11 | 0.9 ± 0.15 | 0.798 ± 0.021 | 0.918 ± 0.1 | 0.918 ± 0.073 | 0.709 ± 0.074 | 0.752 ± 0.04 | 0.672 ± 0.041 | 0.69 ± 0.0053 | 0.543 ± 0.065 | 0.615 ± 0.082 | 0.553 ± 0.09 | 0.589 ± 0.063
8 | HCT15 LARGE INTESTINE | 1.08 ± 0.1 | 1.09 ± 0.084 | 1.06 ± 0.09 | 1.05 ± 0.073 | 1.07 ± 0.091 | 1.11 ± 0.097 | 0.217 ± 0.046 | 0.203 ± 0.042 | 1.03 ± 0.075 | 1.01 ± 0.16 | 1.05 ± 0.13 | 1.05 ± 0.051 | 0.982 ± 0.1 | 0.988 ± 0.093 | 0.996 ± 0.095 | 1.03 ± 0.13
9 | SCC003 HEADNECK | 1.09 ± 0.068 | 1.14 ± 0.033 | 1.12 ± 0.074 | 1.11 ± 0.038 | 1.04 ± 0.066 | 1.06 ± 0.088 | 0.912 ± 0.046 | 0.485 ± 0.0087 | 1.03 ± 0.045 | 1.05 ± 0.016 | 1.1 ± 0.059 | 1.05 ± 0.078 | 1.07 ± 0.047 | 1.05 ± 0.091 | 0.99 ± 0.11 | 0.918 ± 0.057
10 | MHM BONE | 1.04 ± 0.015 | 1.01 ± 0.012 | 1.05 ± 0.015 | 1.08 ± 0.026 | 1.03 ± 0.017 | 0.973 ± 0.0092 | 0.859 ± 0.026 | 0.8 ± 0.016 | 1.02 ± 0.025 | 1.02 ± 0.035 | 1.05 ± 0.015 | 1.06 ± 0.051 | 1.06 ± 0.039 | 1.074 ± 0.0062 | 1.09 ± 0.022 | 1.07 ± 0.041
11 | SG43 HEADNECK | 1.03 ± 0.26 | 0.918 ± 0.14 | 0.678 ± 0.063 | 0.732 ± 0.032 | 0.727 ± 0.15 | 0.883 ± 0.12 | 0.545 ± 0.11 | 0.247 ± 0.076 | 1.13 ± 0.22 | 1.05 ± 0.17 | 0.927 ± 0.14 | 0.82 ± 0.18 | 1.06 ± 0.26 | 1.13 ± 0.24 | 1.15 ± 0.14 | 1.46 ± 0.17
12 | MDAMB134 BREAST | 0.888 ± 0.12 | 1.41 ± 0.042 | 0.916 ± 0.06 | 1.37 ± 0.026 | 0.86 ± 0.16 | 1.17 ± 0.32 | 0.939 ± 0.14 | 0.886 ± 0.033 | 0.811 ± 0.061 | 0.818 ± 0.12 | 0.814 ± 0.051 | 0.8795 ± 0.0078 | 0.703 ± 0.19 | 0.764 ± 0.13 | 0.824 ± 0.21 | 0.986 ± 0.4
13 | SG27 HEADNECK | 0.986 ± 0.14 | 1.12 ± 0.063 | 1.07 ± 0.11 | 1.11 ± 0.14 | 0.962 ± 0.12 | 1.02 ± 0.075 | 0.901 ± 0.11 | 0.829 ± 0.078 | 1.15 ± 0.14 | 1.18 ± 0.21 | 0.878 ± 0.14 | 1.14 ± 0.11 | 0.968 ± 0.093 | 0.923 ± 0.03 | 1.05 ± 0.062 | 0.989 ± 0.063
14 | OS25HAL BONE | 1.01 ± 0.045 | 1.04 ± 0.032 | 1.08 ± 0.0095 | 1 ± 0.018 | 0.924 ± 0.023 | 0.951 ± 0.031 | 0.375 ± 0.038 | 0.193 ± 0.0084 | 0.98 ± 0.029 | 1.1 ± 0.024 | 1.017 ± 0.01 | 1.01 ± 0.032 | 0.954 ± 0.034 | 1.01 ± 0.052 | 1.003 ± 0.0071 | 0.98 ± 0.039
15 | NY BONE | 1.05 ± 0.035 | 1.03 ± 0.034 | 1.07 ± 0.033 | 1.016 ± 0.0061 | 0.91 ± 0.019 | 0.93 ± 0.045 | 0.558 ± 0.047 | 0.587 ± 0.031 | 0.989 ± 0.016 | 0.99 ± 0.044 | 1.05 ± 0.042 | 1.01 ± 0.055 | 0.981 ± 0.033 | 1.026 ± 0.0093 | 0.895 ± 0.03 | 0.827 ± 0.052
16 | KPD BONE | 1.05 ± 0.059 | 1.03 ± 0.029 | 1.09 ± 0.03 | 1.11 ± 0.026 | 1.07 ± 0.04 | 1.04 ± 0.018 | 0.63 ± 0.037 | 0.303 ± 0.028 | 0.975 ± 0.058 | 0.983 ± 0.022 | 1.13 ± 0.15 | 1.05 ± 0.028 | 0.956 ± 0.032 | 0.95 ± 0.022 | 0.876 ± 0.022 | 0.732 ± 0.046
17 | SNU475 LIVER | 1.05 ± 0.052 | 1.03 ± 0.025 | 0.957 ± 0.087 | 1 ± 0.036 | 0.967 ± 0.016 | 0.979 ± 0.035 | 0.853 ± 0.055 | 0.502 ± 0.03 | 0.999 ± 0.052 | 0.982 ± 0.039 | 0.992 ± 0.065 | 0.99 ± 0.026 | 0.919 ± 0.027 | 0.916 ± 0.028 | 0.863 ± 0.053 | 0.892 ± 0.043
18 | JURKAT HAEMATOPOIETIC AND LYMPHOID TISSUE | 1 ± 0.034 | 0.979 ± 0.036 | 1.02 ± 0.031 | 0.971 ± 0.023 | 0.923 ± 0.019 | 0.976 ± 0.039 | 0.61 ± 0.021 | 0.601 ± 0.03 | 1.09 ± 0.018 | 1.1 ± 0.029 | 1.04 ± 0.019 | 1.02 ± 0.024 | 1.01 ± 0.049 | 1.01 ± 0.029 | 0.979 ± 0.021 | 0.916 ± 0.047
19 | MDAMB468 BREAST | 1.02 ± 0.03 | 1.05 ± 0.059 | 1.12 ± 0.077 | 1.09 ± 0.03 | 1.15 ± 0.086 | 1.06 ± 0.076 | 0.928 ± 0.082 | 0.356 ± 0.014 | 0.941 ± 0.048 | 0.89 ± 0.085 | 0.917 ± 0.034 | 0.929 ± 0.056 | 0.8 ± 0.047 | 0.746 ± 0.065 | 0.761 ± 0.048 | 0.609 ± 0.12
20 | HSSYII SYNOVIAL | 0.972 ± 0.039 | 0.941 ± 0.031 | 0.956 ± 0.038 | 0.92 ± 0.039 | 0.85 ± 0.028 | 0.771 ± 0.028 | 0.208 ± 0.021 | 0.0695 ± 0.0013 | 0.918 ± 0.023 | 0.915 ± 0.074 | 0.881 ± 0.028 | 0.861 ± 0.027 | 0.696 ± 0.055 | 0.653 ± 0.041 | 0.473 ± 0.05 | 0.343 ± 0.021
21 | NCIH441 LUNG | 1.11 ± 0.021 | 1.09 ± 0.063 | 1.1 ± 0.038 | 1 ± 0.079 | 0.983 ± 0.026 | 0.932 ± 0.065 | 0.807 ± 0.04 | 0.655 ± 0.066 | 1.06 ± 0.08 | 0.973 ± 0.12 | 1.09 ± 0.064 | 1.01 ± 0.06 | 0.992 ± 0.051 | 0.809 ± 0.022 | 0.996 ± 0.022 | 0.923 ± 0.1

Reference: the supplement of paper PMC6045584
